The source of these data is US8889666B2, “Quinolyl pyrrolo pyrimidyl condensed-ring compound and salt thereof” (Taiho Pharmaceutical Co., Ltd., priority 2012, dated 2014).

Common to all, as to assay type: biochemical
Test [1] deals with T1, EGFR (T790M/L858R) (Homo sapiens, UniProt P00533, L858R/T790M).
T1 construct: purchased Carna Biosciences, Inc
In words: EGFR (T790M/L858R) kinase inhibitory activity (in vitro). The settings on record: for pIC50: recombinant human protein, ATP 1 μM, 120 minutes; for inhibitory activities for EGFR (L858R), EGFR (d746-750), EGFR (T790M/L858R) and EGFR (d746-750/T790M), in words: summary of Table 1, all four mutant kinases. The procedure: 1) Measurement of EGFR (T790M/L858R) Kinase Inhibitory Activity
The inhibitory activities of the compounds I-1, I-2, I-3, I-4, I-5, I-6, I-7, I-8, and I-9 for EGFR (T790M/L858R) kinase were measured.
The materials were as follows. The substrate peptide was a biotinylated peptide (biotin-EEPLYWSFPAKKK) synthesized by reference to the amino acid sequence of FL-Peptide 22 (a reagent for LabChip® Series; Caliper Life Sciences, Inc.). The EGFR (T790M/L858R) was a purified recombinant human EGFR (T790M/L858R) protein purchased from Carna Biosciences, Inc.
(§1) The measurement method was as follows. The compounds I-1, I-2, I-3, I-4, I-5, I-6, I-7, I-8, and I-9 were each dissolved in dimethylsulfoxide (DMSO), and then each serially diluted with DMSO. Next, the EGFR (T790M/L858R) protein, substrate peptide (final concentration: 250 nM), magnesium chloride (final concentration: 10 mM), manganese chloride (final concentration: 10 mM), ATP (final concentration: 1 μM), and the diluted DMSO solution of each compound (final concentration of DMSO: 2.5%) were added to a kinase reaction buffer (Carna Biosciences, Inc.), and the mixture was incubated at 25° C. for 120 minutes for kinase reaction. EDTA was added thereto to a final concentration of 24 mM to thereby terminate the reaction. Then, a detection solution containing europium (Eu)-labeled anti-phosphorylated tyrosine antibody PT66 (PerkinElmer) and SureLight APC-SA (PerkinElmer) was added, and the resulting mixture was allowed to stand at room temperature for 2 hours or more. Finally, the intensity of fluorescence under the excitation light with a wavelength of 337 nm was measured by a PHERAstar FS (BMG LABTECH) at two wavelengths of 620 nm and 665 nm. The level of phosphorylation of each test sample was calculated from the fluorescence intensity ratio of the two wavelengths in DMSO control and in the test sample, and the compound concentration at which phosphorylation was inhibited by 50% was determined as the IC50 value (nM) of each compound.

Test [2] has as its target T2, EGFR (d746-750/T790M) (Homo sapiens, UniProt P00533, DEL746-750/T790M).
T2 construct: purchased Carna Biosciences, Inc
In words: EGFR (d746-750/T790M) kinase inhibitory activity (in vitro). The conditions noted are these: recombinant human protein, ATP 1.5 μM. On the procedure: as §1
2) Measurement of EGFR (d746-750/T790M) Kinase Inhibitory Activity
The inhibitory activities of the compounds I-1, I-2, I-3, I-4, I-5, I-6, I-7, I-8, and I-9 for EGFR (d746-750/T790M) kinase were measured.
The materials were as follows. The EGFR (d746-750/T790M) was a purified recombinant human EGFR (d746-750/T790M) protein purchased from Carna Biosciences, Inc. The final concentration of ATP was 1.5 μM. As for other conditions, the same materials and methods as those used in the measurement of EGFR (T790M/L858R) kinase inhibitory activity were used to determine the IC50 value (nM) of each compound.

In test [3] the target is T3, EGFR (WT) (Homo sapiens, UniProt P00533).
T3 construct: the cytoplasmic domain of human EGFR (WT); FLAG (N); made in house; host or cells: baculovirus expression system, insect Sf9 cells
T3 sequence (P00533 669-1210 limits assumed): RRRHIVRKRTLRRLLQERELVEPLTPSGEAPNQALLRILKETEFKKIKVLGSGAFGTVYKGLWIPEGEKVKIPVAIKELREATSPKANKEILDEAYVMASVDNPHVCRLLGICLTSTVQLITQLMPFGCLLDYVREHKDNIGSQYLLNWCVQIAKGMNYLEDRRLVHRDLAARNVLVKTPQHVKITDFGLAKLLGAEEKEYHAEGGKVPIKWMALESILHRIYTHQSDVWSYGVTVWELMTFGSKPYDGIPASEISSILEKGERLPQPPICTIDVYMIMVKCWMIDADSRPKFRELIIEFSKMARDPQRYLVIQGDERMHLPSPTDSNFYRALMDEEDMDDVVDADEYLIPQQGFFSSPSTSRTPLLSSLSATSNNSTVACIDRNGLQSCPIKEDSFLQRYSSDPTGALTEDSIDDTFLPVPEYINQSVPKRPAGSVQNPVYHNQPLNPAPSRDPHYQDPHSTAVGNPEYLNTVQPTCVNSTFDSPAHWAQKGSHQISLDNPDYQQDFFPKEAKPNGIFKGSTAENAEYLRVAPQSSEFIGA
The experiment in a line: EGFR (WT) kinase inhibitory activity (in vitro). The settings on record: for pIC50: cytoplasmic domain of human EGFR (WT), ATP 4.7 μM, substrate peptide 500 nM; for inhibitory activities for EGFR (WT) compared with the mutant EGFR proteins, in words: summary of Table 1. On the procedure:
as §1
The inhibitory activities of the compounds I-1, I-2, I-3, I-4, I-5, I-6, I-7, I-8, and I-9 on EGFR (WT) kinase were measured.
The materials were as follows. As the EGFR (WT), the cytoplasmic domain of human EGFR (WT) in which a FLAG tag was fused to the N-terminus was expressed in a baculovirus expression system using insect Sf9 cells, and purified with anti-FLAG antibody agarose (Sigma-Aldrich). The final concentration of the substrate peptide was 500 nM, and the final concentration of ATP was 4.7 μM. As for other conditions, the same materials and methods as those used in the measurement of EGFR (T790M/L858R) kinase inhibitory activity were used to determine the IC50 value (nM) of each compound.

The target in test [4] is T4, EGFR (L858R) (Homo sapiens, UniProt P00533, L858R).
T4 construct: purchased Carna Biosciences, Inc
T4 sequence (P00533 25-1210 L858R): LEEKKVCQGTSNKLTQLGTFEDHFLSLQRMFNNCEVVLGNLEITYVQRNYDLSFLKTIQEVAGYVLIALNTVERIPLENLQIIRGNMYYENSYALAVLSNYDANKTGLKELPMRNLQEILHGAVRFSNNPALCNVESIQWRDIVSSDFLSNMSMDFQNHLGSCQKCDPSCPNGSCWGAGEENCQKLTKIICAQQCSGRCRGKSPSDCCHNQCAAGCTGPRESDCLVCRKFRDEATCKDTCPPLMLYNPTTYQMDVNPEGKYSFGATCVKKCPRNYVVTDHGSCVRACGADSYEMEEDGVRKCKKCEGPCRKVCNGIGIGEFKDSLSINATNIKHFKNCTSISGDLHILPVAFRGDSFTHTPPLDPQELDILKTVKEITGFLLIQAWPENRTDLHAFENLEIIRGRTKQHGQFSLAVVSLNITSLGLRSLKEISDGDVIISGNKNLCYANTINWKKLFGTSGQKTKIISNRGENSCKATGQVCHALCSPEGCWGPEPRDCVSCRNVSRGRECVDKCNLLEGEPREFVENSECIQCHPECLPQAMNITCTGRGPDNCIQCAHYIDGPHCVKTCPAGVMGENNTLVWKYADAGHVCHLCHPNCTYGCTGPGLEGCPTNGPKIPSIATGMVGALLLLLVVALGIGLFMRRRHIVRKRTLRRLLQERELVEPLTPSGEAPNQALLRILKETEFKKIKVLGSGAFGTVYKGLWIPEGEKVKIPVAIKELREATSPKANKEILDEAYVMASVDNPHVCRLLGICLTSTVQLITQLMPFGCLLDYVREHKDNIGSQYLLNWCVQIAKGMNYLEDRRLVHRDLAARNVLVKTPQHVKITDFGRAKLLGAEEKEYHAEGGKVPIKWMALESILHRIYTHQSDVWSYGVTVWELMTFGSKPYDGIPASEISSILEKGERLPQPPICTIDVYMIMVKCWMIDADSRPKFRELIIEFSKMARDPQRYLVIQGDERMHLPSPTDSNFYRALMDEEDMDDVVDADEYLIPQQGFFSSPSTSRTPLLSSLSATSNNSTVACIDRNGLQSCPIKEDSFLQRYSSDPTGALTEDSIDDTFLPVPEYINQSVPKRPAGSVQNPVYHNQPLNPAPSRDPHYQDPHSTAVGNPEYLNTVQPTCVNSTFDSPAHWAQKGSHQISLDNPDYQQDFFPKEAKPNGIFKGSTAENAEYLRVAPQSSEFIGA
In words: EGFR (L858R) kinase inhibitory activity (in vitro). The conditions noted are these: recombinant human protein, ATP 4 μM. The procedure:
as §1
3) Measurement of EGFR (L858R) Kinase Inhibitory Activity
The inhibitory activities of the compounds I-1, I-2, I-3, I-4, I-5, I-6, I-7, I-8, and I-9 for EGFR (L858R) kinase were measured.
The materials were as follows. The EGFR (L858R) was a purified recombinant human EGFR (L858R) protein purchased from Carna Biosciences, Inc. The final concentration of ATP was 4 μM. As for other conditions, the same materials and methods as those used in the measurement of EGFR (T790M/L858R) kinase inhibitory activity were used to determine the IC50 value (nM) of each compound.

The target in test [5] is T5, EGFR (d746-750) (Homo sapiens, UniProt P00533, DEL746-750).
T5 construct: purchased Carna Biosciences, Inc
T5 sequence (P00533 with tags, fused parts or gaps DEL746-750 limits assumed): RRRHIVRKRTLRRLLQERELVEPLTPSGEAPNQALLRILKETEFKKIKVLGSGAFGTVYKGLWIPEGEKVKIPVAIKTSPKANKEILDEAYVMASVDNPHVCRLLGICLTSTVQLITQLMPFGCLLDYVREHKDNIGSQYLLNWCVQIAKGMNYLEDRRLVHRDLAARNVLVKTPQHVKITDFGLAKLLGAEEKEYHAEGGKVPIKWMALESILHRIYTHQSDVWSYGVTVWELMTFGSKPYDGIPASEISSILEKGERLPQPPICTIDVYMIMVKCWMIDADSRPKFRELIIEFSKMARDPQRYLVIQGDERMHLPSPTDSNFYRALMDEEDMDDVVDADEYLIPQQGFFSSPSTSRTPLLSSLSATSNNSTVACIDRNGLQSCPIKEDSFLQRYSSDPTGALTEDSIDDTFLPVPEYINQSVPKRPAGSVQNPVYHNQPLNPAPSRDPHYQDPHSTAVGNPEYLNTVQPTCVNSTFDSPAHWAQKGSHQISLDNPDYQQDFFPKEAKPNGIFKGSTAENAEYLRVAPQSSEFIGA
In words: EGFR (d746-750) kinase inhibitory activity (in vitro). The settings on record: recombinant human protein, ATP 5 μM, 90 minutes. The procedure:
as §1
4) Measurement of EGFR (d746-750) Kinase Inhibitory Activity
The inhibitory activities of the compounds I-1, I-2, I-3, I-4, I-5, I-6, I-7, I-8, and I-9 for EGFR (d746-750) kinase activity were measured.
The materials were as follows. The EGFR (d746-750) was a purified recombinant human EGFR (d746-750) protein purchased from Carna Biosciences, Inc. The final concentration of ATP was 5 μM. The incubation time for the kinase reaction was 90 minutes. As for other conditions, the same materials and methods as those used in the measurement of EGFR (T790M/L858R) kinase inhibitory activity were used to determine the IC50 value (nM) of each compound.

pIC50: −log10 of the molar value. Some results are limits rather than exact numbers.

T2 sequence (P00533 with tags, fused parts or gaps DEL746-750/T790M limits assumed): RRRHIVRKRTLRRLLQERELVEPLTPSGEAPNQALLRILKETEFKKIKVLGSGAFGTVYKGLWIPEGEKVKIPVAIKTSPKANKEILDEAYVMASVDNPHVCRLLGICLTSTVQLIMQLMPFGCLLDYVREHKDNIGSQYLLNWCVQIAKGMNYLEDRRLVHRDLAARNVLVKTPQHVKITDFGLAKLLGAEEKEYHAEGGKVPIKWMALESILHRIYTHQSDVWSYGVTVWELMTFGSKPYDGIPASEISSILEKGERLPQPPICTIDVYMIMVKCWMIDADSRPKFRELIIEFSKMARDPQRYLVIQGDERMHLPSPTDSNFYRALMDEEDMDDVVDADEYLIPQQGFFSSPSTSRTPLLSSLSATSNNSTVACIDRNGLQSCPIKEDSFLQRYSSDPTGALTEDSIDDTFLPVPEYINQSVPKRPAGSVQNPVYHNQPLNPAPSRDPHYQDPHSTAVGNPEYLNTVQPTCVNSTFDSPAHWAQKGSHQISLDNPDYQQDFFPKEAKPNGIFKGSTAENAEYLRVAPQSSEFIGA
T1 sequence (P00533 25-1210 T790M/L858R): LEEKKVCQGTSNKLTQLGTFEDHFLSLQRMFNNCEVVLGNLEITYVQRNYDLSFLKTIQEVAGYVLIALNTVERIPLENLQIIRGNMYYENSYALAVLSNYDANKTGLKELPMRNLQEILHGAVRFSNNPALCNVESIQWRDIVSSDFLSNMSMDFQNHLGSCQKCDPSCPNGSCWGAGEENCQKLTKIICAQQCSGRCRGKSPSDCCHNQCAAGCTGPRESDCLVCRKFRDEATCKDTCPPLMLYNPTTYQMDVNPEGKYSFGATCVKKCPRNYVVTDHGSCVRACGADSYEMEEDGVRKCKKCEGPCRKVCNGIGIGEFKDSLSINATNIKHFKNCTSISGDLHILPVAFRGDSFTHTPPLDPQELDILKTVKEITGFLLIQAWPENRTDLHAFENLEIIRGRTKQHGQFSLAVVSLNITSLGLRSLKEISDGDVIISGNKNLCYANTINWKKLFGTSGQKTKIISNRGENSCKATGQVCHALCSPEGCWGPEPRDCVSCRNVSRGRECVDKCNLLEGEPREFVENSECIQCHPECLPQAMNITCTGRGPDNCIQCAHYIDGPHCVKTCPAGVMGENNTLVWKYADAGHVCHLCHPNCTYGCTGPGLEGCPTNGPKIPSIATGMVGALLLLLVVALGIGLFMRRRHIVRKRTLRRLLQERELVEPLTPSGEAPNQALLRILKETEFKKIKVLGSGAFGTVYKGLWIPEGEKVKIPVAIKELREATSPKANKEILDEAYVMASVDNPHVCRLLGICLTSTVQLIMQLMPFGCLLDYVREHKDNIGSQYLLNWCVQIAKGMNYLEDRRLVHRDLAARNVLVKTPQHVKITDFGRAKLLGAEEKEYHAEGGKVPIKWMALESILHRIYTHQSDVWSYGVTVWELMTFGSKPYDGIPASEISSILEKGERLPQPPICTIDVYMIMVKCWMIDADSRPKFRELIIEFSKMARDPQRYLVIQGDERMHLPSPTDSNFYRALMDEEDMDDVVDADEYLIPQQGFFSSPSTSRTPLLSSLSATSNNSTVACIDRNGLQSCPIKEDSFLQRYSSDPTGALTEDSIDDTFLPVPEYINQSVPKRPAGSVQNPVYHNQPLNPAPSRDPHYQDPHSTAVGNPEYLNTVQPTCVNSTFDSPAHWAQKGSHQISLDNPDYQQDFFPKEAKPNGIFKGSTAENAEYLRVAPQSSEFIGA

In general, pIC50 refers to the negative decadic logarithm of the IC50, by convention in mol/L. Regarding `Nc1ncnc2c1c(-c1cnc3ccccc3c1)c1n2C[C@@H](NC(=O)/C=C/Cl)CC1` [Compound I-5, (S,E)-N-(4-amino-5-(quinolin-3-yl)-6,7,8,9-tetrahydropyrimido[5,4-b]indolizin-8-yl)-3-chloroacrylamide], the pIC50 in test [1] was 9.40; in test [2], 9.52; in test [3], 8.23; in test [4], 9.15; in test [5] it was 9.30. In addition, the “inhibitory activities for EGFR (L858R), EGFR (d746-750), EGFR (T790M/L858R) and EGFR (d746-750/T790M), in words” value (“inhibitory activities for EGFR (L858R)” for short) in test [1] is on record as “potent inhibitory activities”. Besides, the “inhibitory activities for EGFR (WT) compared with the mutant EGFR proteins, in words” value in test [3] was “lower than those for the above mutant EGFR proteins”.

In the case of `Nc1ncnc2c1c(-c1cnc3ccccc3c1)c1n2C[C@@H](NC(=O)/C=C\Cl)CC1` [Compound I-6, (S,Z)—N-(4-amino-5-(quinolin-3-yl)-6,7,8,9-tetrahydropyrimido[5,4-b]indolizin-8-yl)-3-chloroacrylamide], the pIC50 was 8.92 in test [1]; 8.92 in test [2]; 7.39 in test [3]; 8.54 in test [4]; 8.44 in test [5]. For the same compound, the “inhibitory activities for EGFR (L858R)” value in test [1] is recorded as “potent inhibitory activities”. In addition, the “inhibitory activities for EGFR (WT) compared with the mutant EGFR proteins, in words” value in test [3] is “lower than those for the above mutant EGFR proteins”.

For `C=CC(=O)N[C@@H]1CCc2c(-c3cnc4ccccc4c3)c3c(N)ncnc3n2C1` (single isomer, unassigned) [Compound I-1], the pIC50 was 8.28 in test [1]; 8.55 in test [2]; 6.77 in test [3]; 7.85 in test [4]; 7.89 in test [5]. The “inhibitory activities for EGFR (L858R)” value in test [1] is on record as “potent inhibitory activities”. Besides, the “inhibitory activities for EGFR (WT) compared with the mutant EGFR proteins, in words” value in test [3] is “lower than those for the above mutant EGFR proteins”.

As for `C=CC(=O)N[C@H]1CCc2c(-c3cnc4ccccc4c3)c3c(N)ncnc3n2CC1` [Compound I-7, (S)-N-(4-amino-5-(quinolin-3-yl)-7,8,9,10-tetrahydro-6H-pyrimido[5′,4′:4,5]pyrrolo[1,2-a]azepin-8-yl)acrylamide], the pIC50 in test [1] is 8.85; in test [2] it was 9.30; in test [3] it was 7.48; in test [4], 8.54; in test [5] it was 8.74. The “inhibitory activities for EGFR (L858R)” value in test [1] is given as “potent inhibitory activities”. The “inhibitory activities for EGFR (WT) compared with the mutant EGFR proteins, in words” value in test [3] is “lower than those for the above mutant EGFR proteins”.

In the case of `CN(C)C/C=C/C(=O)NC1CCc2c(-c3cnc4ccccc4c3)c3c(N)ncnc3n2C1` (stereo not shown) [Compound I-4, (E)-N-(4-amino-5-(quinolin-3-yl)-6,7,8,9-tetrahydropyrimido[5,4-b]indolizin-8-yl)-4-(dimethylamino)-2-butenamide], the pIC50 in test [1] is 8.17; in test [2], 8.39; in test [3] it was 6.92; in test [4], 7.92; in test [5], 8.00. Moreover, the “inhibitory activities for EGFR (L858R)” value in test [1] is listed as “potent inhibitory activities”. For the same compound, the “inhibitory activities for EGFR (WT) compared with the mutant EGFR proteins, in words” value in test [3] is listed as “lower than those for the above mutant EGFR proteins”.

For `Nc1ncnc2c1c(-c1cccc(NC(=O)c3ccccc3)c1)c1n2CCCC1` [Comp. Ex. 1, N-(3-(4-amino-6,7,8,9-tetrahydropyrimido[5,4-b]indolizin-5-yl)phenyl)benzamide, reference compound], in test [1] (all EGFR kinases of Test Example 1), the “inhibitory activity for these EGFR kinases, in words” value is on record as “almost no inhibitory activity”. The pIC50 in test [1] is less than 5.30; in test [2], less than 5.30; in test [3], less than 5.30; in test [4] it was less than 5.30; in test [5] it was 5.82.

In the case of `C=CC(=O)N[C@H]1CCCc2c(-c3cnc4ccccc4c3)c3c(N)ncnc3n2C1` [Compound I-8, (S)-N-(4-amino-5-(quinolin-3-yl)-7,8,9,10-tetrahydro-6H-pyrimido[5′,4′:4,5]pyrrolo[1,2-a]azepin-9-yl)acrylamide], the pIC50 in test [1] is 7.74; in test [2], 7.89; in test [3] it was 6.31; in test [4] it was 7.39; in test [5], 7.70. For the same compound, the “inhibitory activities for EGFR (L858R)” value in test [1] was “potent inhibitory activities”. The “inhibitory activities for EGFR (WT) compared with the mutant EGFR proteins, in words” value in test [3] was “lower than those for the above mutant EGFR proteins”.

With `C=CC(=O)N[C@@H]1CCCc2c(-c3cnc4ccccc4c3)c3c(N)ncnc3n2C1` [Compound I-9, (R)-N-(4-amino-5-(quinolin-3-yl)-7,8,9,10-tetrahydro-6H-pyrimido[5′,4′:4,5]pyrrolo[1,2-a]azepin-9-yl)acrylamide], the pIC50 is 6.80 in test [1]; 7.09 in test [2]; 5.44 in test [3]; 6.46 in test [4]; 6.57 in test [5]. In addition, the “inhibitory activities for EGFR (L858R)” value in test [1] is “potent inhibitory activities”. Besides, the “inhibitory activities for EGFR (WT) compared with the mutant EGFR proteins, in words” value in test [3] is recorded as “lower than those for the above mutant EGFR proteins”.
